Assay results published in patent US20180044428A1, “COMPOSITIONS AND METHODS FOR ENHANCING THE EFFICACY OF CANCER THERAPY” (PROVIDENCE HEALTH & SERVICES-OREGON, priority 2015, published 2018).

Experiments:
Type in all cases: in vivo, C57BL/6 mice
Panc02 tumors = assay: Panc02 pancreatic adenocarcinoma model, immunochemotherapy (tumor area, survival); settings: gemcitabine 100 mg/kg i.p. twice weekly alone
Experimental: The Panc02 murine pancreatic adenocarcinoma cell line (Priebe et al., 1992, Cancer Chemother Pharmacol; 29:485-9. C57BL/6) was kindly provided by Dr. Woo (Mount Sinai School of Medicine, N.Y.). 6-8 week old C57BL/6 mice were obtained from Charles River Laboratories (Wilmington, Mass.) for use in these experiments. All animal protocols were approved by the EACRI IACUC (Animal Welfare Assurance No. A3913-01).
Mice bearing 10-14 day old tumors were treated with anti-OX40 (OX86, 250 μg intraperitoneally, BioXcell, West Lebanon, N.H.), anti-CTLA4 (9D9, 250 μg intraperitoneally, BioXcell) or the combination. Chemotherapy consisted of 100 mg/kg Gemcitabine (Eli Lilly and Co., Indianapolis, Ind.) intraperitoneally twice per week for 2 or 3 weeks. Anti-interleukin-4 (Anti-IL-4, 11B11, 100 μg intraperitoneally, BioXcell) was delivered intraperitoneally twice per week for 3 weeks.
Data were analyzed and graphed using Prism (GraphPad Software, La Jolla, Calif.). Individual data sets were compared using Student's T-test. Analysis across multiple groups was performed using ANOVA with individual groups assessed using Tukey's comparison. Kaplan Meier survival curves were compared using a log-rank test.

F4/80+ macrophages = assay: Immunohistology for F4/80+ macrophages in Panc02 tumors; settings: gemcitabine, tumors harvested after one week of treatment
Experimental: For immunohistology, tumors were fixed overnight in Z7 zinc based fixative (Lykidis et al., 2007, Nucleic acids research; 35:e85). Tissue was then dehydrated through graded alcohol to xylene, incubated in molten paraffin, and then buried in paraffin. Sections (5 μm) were cut and mounted for analysis. Tissue sections were boiled in ethylenediaminetetraacetic acid (EDTA) buffer as appropriate for antigen retrieval. Primary antibody binding was visualized with AlexaFluor 488 conjugated secondary antibodies (Molecular Probes, Eugene, Oreg.) and mounted with DAPI (Invitrogen) to stain nuclear material. Images were acquired using: a Nikon TE2000S epifluorescence microscope, Nikon DsFi1 digital camera and Nikon NIS-Elements imaging software. Multiple images were taken at high resolution across the tumor and digitally merged to make a single margin-to-margin overview of the tumor.

[1] = tested on: peripheral blood immune cells; assay: Quantitative flow cytometry of peripheral blood after immunochemotherapy
Experimental: For analysis of tumor-infiltrating cells, the tumor was dissected into approximately 2 mm fragments followed by agitation in lmg/mL collagenase (Invitrogen), 100μg/mL hyaluronidase (Sigma, St Louis, Mo.), and 20 mg/mL DNase (Sigma) in PBS for 1 hour at room temperature. The digest was filtered through 100 μm nylon mesh to remove macroscopic debris. For flow cytometry analysis of infiltrating cells, cell suspensions were washed and stained with directly conjugated fluorescent antibodies. For analysis of lymph nodes, lymph nodes were crushed, washed and surface stained, then cells were washed and fixed using a T regulatory cell staining kit (EBioscience) and stained for transcription factors. To measure cytokine responses, lymph node cells were plated to wells pre-coated with 1 μg/ml anti-CD3 for 4 hours in the presence of Golgiplug (BD biosciences). Cells were then surface stained, washed and fixed using a T regulatory cell staining kit (EBioscience) before intracellular cytokine staining. For analysis of cell numbers in blood, whole blood was harvested into ethylenediaminetetraacetic acid (EDTA) tubes from live mice via the saphenous vein, and 5-25 μl of fresh blood was stained directly with fluorescent antibody cocktails (see, Crittenden et al., PLoS One, 2013. 8(7): e69527). A known number of AccuCheck fluorescent beads (Invitrogen) were added to each sample, then red blood cells were lysed with Cal-Lyse whole blood lysing solution (Invitrogen), and samples analyzed on a BD LSRII flow cytometer. The absolute number of cells in the sample was determined based on comparing cellular events to bead events (cells/μl).

[2] = following one cycle of chemoimmunotherapy

SMILES: Nc1ccn([C@@H]2O[C@H](CO)[C@@H](O)C2(F)F)c(=O)n1 [gemcitabine]
- survival (Panc02 tumors): significantly extended survival
- tumor growth (Panc02 tumors): transient tumor delay
- macrophage infiltration throughout the tumor (F4/80+ macrophages): increased
- T cell populations in peripheral blood ([1]; following chemotherapy): not decreased
- CD11b+Gr1hi neutrophils in the peripheral blood [1, 2]: significantly decreased
- CD11b+Ly6C+Ly6Glo immature myeloid cells in the peripheral blood [1, 2]: significantly decreased
